The source of these data is patent US10844077B2, “Thiazolyl-containing compounds for treating proliferative diseases” (Dana-Farber Cancer Institute, Inc., priority 2014, dated 2020).

Broadly, the IC50 is the point on the concentration scale where inhibition reaches its midpoint.

One assay has as its target NDR1 (Homo sapiens (Human), UniProt Q15208). The assay is described as follows: KINATIV assay. It counts as cell-based. The conditions noted are these: 1 μM, 90 minutes, BCWM.1 cells. An outline of the steps:
(§1)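 Harvest, lyse, probe: lysates take up an ATP-biotin probe directly, and ACTIVX identifies and quantifies the kinases bound.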

Assay [1] addresses broad panel of kinases (Homo sapiens, UniProt Q99558). The assay is classed as binding. The conditions noted are these: NIK; 1 μM.
In assay [2] the target is broad panel of kinases (Homo sapiens, UniProt Q13557). The assay is classed as binding. The conditions noted are these: CAMK2D; 1 μM.
Chain of broad panel of kinases (Homo sapiens, UniProt Q13557) (Q13557 2-499 limits assumed): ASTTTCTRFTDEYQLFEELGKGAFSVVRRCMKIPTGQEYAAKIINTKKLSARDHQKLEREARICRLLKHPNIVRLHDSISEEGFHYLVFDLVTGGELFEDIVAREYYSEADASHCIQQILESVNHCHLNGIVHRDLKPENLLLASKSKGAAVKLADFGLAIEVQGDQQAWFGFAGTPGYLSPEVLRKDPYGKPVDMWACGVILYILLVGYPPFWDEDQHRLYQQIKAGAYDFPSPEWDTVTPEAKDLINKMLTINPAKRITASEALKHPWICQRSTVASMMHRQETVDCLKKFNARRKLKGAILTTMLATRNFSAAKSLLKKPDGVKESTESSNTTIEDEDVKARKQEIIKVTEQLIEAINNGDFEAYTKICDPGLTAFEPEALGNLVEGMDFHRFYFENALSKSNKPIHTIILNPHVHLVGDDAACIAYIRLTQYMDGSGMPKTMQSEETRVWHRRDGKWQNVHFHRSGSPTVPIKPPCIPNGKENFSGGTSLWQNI
The target in assay [3] is broad panel of kinases (Homo sapiens, UniProt Q16659). It counts as binding. Particulars: ERK3; 1 μM.
For assay [4], the target named is broad panel of kinases (Homo sapiens, UniProt Q9Y2H1). The assay is classed as binding. Particulars: NDR2; 1 μM.
The target in assay [5] is broad panel of kinases (Homo sapiens, UniProt P20794). It counts as binding. The conditions noted are these: MAK; 1 μM.
Assay [6] addresses broad panel of kinases (Homo sapiens, UniProt Q8IW41). It counts as binding.
The target in assay [7] is broad panel of kinases (Homo sapiens, UniProt P42345). It counts as binding. Particulars: MTOR; 1 μM.
Assay [8] concerns the target broad panel of kinases (Homo sapiens, UniProt Q8IVW4). The assay is classed as binding. The conditions noted are these: CDKL3; 1 μM.
The target in assay [9] is broad panel of kinases (Homo sapiens, UniProt P00533, L858R/T790M). It counts as binding. Particulars: EGFR(L858R, T790M); 1 μM.
Chain of broad panel of kinases (Homo sapiens, UniProt P00533, L858R/T790M) (P00533 25-1210 T790M/L858R limits assumed): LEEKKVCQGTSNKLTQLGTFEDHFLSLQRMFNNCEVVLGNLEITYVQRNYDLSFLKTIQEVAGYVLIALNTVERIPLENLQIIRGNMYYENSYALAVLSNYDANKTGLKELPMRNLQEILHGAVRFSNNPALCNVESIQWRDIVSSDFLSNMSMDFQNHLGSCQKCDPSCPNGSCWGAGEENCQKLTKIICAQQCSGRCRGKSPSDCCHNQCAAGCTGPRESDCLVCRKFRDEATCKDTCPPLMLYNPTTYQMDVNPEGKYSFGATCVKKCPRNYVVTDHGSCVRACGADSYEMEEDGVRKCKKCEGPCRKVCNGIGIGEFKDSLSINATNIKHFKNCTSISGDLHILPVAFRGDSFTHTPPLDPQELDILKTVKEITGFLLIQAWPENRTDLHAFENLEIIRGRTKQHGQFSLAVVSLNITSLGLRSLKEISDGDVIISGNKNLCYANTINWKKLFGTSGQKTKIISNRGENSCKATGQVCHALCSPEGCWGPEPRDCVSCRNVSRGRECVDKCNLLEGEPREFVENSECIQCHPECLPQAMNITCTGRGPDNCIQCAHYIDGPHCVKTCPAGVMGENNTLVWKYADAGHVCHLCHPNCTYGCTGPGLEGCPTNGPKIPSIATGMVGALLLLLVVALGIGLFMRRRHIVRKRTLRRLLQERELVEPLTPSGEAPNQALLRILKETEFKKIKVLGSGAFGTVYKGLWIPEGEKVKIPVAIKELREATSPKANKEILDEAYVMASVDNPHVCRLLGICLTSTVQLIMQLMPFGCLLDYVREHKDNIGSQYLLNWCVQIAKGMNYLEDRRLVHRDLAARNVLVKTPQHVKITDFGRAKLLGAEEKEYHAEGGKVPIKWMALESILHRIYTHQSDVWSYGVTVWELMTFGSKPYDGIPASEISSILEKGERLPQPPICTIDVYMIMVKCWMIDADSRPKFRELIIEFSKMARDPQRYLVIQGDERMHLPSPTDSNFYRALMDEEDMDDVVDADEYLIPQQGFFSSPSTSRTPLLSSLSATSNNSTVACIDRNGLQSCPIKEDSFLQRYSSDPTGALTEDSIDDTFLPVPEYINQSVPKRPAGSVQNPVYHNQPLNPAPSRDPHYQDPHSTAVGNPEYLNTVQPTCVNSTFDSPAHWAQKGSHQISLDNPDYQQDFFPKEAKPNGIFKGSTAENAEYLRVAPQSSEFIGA
Assay [10] addresses broad panel of kinases (Homo sapiens, UniProt P00533, L858R). The assay is classed as binding. The conditions noted are these: EGFR(L858R); 1 μM.
A further assay deals with DNAPK (Homo sapiens (Human), UniProt P78527). The assay is described as follows: KINATIV assay. It counts as cell-based. Particulars: 1 μM, 90 minutes, BCWM.1 cells. The method in brief: as §1
The target in the next assay is IKKb (Homo sapiens (Human), UniProt O14920). The assay is described as follows: KINATIV assay. The assay is classed as cell-based. Particulars: 1 μM, 90 minutes, BCWM.1 cells. An outline of the steps:
as §1

A further assay deals with CDK7 (Homo sapiens (Human), UniProt P50613). The assay can be described thus: KINATIV assay. The assay is classed as cell-based. The conditions noted are these: 1 μM, 90 minutes, BCWM.1 cells. The method in brief: as §1
A further assay has as its target JAK3 domain2 (Homo sapiens (Human), UniProt P52333). The assay is described as follows: KINATIV assay. The assay is classed as cell-based. The conditions noted are these: 1 μM, 90 minutes, BCWM.1 cells. An outline of the steps:
as §1

The target of another assay is p38a (Homo sapiens (Human), UniProt Q16539). The assay can be described thus: KINATIV assay. The assay is classed as cell-based. The conditions noted are these: 1 μM, 90 minutes, BCWM.1 cells. An outline of the steps:
as §1

The subject of a further assay is MAP2K1, MAP2K2. The assay is described as follows: KINATIV assay. The assay is classed as cell-based. Particulars: 1 μM, 90 minutes, BCWM.1 cells. An outline of the steps: as §1
Assay [11] deals with kinases in BCWM.1 cells (Homo sapiens, UniProt P29323). The assay is classed as cell-based. Particulars: EphB2; Activation Loop; 1 μM; GF. On the procedure: (§2) The cells were harvested and lysed. […] Bound kinases were identified and quantitated by ACTIVX as described in Patricelli et al., Biochemistry, 2007, 46(2): 350-358. The compounds were tested in duplicates against duplicate or quadruplicate control samples.

The target in assay [12] is kinases in BCWM.1 cells (Homo sapiens, UniProt Q00536). It counts as cell-based. The protocol: as §2
Assay [13] concerns the target kinases in BCWM.1 cells (Homo sapiens, UniProt Q13557). The assay is classed as cell-based. The conditions noted are these: CaMK2d; Lys1; 1 μM; GF. On the procedure:
as §2

Assay [14] deals with kinases in BCWM.1 cells (Homo sapiens, UniProt Q13418). The assay is classed as cell-based. The conditions noted are these: ILK, 1 μM, GF. On the procedure:
as §2

For assay [15], the target named is kinases in BCWM.1 cells (Homo sapiens, UniProt Q13233). It counts as cell-based. The conditions noted are these: MAP3K1; Lys2; 1 μM; GF. On the procedure:
as §2

The target of assay [16] is kinases in BCWM.1 cells (Homo sapiens, UniProt Q02156). It counts as cell-based. The conditions noted are these: PKCe; Lys2; 1 μM, 90 min; GF. The protocol:
as §2

The target of assay [17] is kinases in BCWM.1 cells (Homo sapiens, UniProt P19784). It counts as cell-based. The conditions noted are these: CK2a2; Lys2; 1 μM; GF. The protocol:
as §2

Assay [18] concerns the target kinases in BCWM.1 cells (Homo sapiens, UniProt Q86UX6). The assay is classed as cell-based. Particulars: YANK3; Lys2; 1 μM, 90 min; GF. On the procedure: as §2
The target of assay [19] is kinases in BCWM.1 cells (Homo sapiens, UniProt P15056). It counts as cell-based. Particulars: BRAF; Lys2; 1 μM; GF. On the procedure: as §2
Chain of kinases in BCWM.1 cells (Homo sapiens, UniProt P15056) (P15056 2-766 limits assumed): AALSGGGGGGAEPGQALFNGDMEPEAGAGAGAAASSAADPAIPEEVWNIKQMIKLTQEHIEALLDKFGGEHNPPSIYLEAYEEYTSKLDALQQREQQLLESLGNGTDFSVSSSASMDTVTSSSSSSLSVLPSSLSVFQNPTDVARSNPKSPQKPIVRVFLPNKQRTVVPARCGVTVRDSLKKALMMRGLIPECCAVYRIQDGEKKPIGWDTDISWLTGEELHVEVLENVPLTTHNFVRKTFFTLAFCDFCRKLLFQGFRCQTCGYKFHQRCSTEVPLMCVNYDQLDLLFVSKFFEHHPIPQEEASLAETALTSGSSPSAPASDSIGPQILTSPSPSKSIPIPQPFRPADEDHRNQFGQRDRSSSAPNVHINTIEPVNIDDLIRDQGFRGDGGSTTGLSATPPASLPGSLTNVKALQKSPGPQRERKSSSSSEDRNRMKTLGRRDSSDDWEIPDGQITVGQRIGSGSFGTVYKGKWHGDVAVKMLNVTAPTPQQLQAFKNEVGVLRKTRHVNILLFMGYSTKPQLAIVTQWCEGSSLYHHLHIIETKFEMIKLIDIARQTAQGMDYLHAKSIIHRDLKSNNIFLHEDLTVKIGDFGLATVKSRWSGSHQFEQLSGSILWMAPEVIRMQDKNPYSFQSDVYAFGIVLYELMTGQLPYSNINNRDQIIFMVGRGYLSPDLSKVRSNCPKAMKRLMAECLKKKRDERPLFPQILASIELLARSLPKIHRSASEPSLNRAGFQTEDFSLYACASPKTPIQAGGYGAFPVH
In assay [20] the target is kinases in BCWM.1 cells (Homo sapiens, UniProt P07948). It counts as cell-based. Particulars: LYN; Lys1; 1 μM; GF. The protocol:
as §2

The target in assay [21] is kinases in BCWM.1 cells (Homo sapiens, UniProt Q00535). The assay is classed as cell-based. The conditions noted are these: CDK5; Lys2; 1 μM; GF. On the procedure: as §2
For assay [22], the target named is kinases in BCWM.1 cells (Homo sapiens, UniProt Q15831). It counts as cell-based. Particulars: LKB1; Lys2; 1 μM; GF. The protocol:
as §2

Assay [23] has as its target kinases in BCWM.1 cells (Homo sapiens, UniProt O14920). The assay is classed as cell-based. The conditions noted are these: IKKb; Lys2; 1 μM; GF. The protocol:
as §2

In assay [24] the target is kinases in BCWM.1 cells (Homo sapiens, UniProt Q9NRM7). The assay is classed as cell-based. Particulars: LATS2; Lys2; 1 μM; GF. On the procedure:
as §2

In the next assay the target is SLK (Homo sapiens (Human), UniProt Q9H2G2). The assay can be described thus: KINATIV assay. It counts as cell-based. Particulars: 1 μM, 90 minutes, BCWM.1 cells. The method in brief: as §1
Chain of SLK (Q9H2G2 whole entry): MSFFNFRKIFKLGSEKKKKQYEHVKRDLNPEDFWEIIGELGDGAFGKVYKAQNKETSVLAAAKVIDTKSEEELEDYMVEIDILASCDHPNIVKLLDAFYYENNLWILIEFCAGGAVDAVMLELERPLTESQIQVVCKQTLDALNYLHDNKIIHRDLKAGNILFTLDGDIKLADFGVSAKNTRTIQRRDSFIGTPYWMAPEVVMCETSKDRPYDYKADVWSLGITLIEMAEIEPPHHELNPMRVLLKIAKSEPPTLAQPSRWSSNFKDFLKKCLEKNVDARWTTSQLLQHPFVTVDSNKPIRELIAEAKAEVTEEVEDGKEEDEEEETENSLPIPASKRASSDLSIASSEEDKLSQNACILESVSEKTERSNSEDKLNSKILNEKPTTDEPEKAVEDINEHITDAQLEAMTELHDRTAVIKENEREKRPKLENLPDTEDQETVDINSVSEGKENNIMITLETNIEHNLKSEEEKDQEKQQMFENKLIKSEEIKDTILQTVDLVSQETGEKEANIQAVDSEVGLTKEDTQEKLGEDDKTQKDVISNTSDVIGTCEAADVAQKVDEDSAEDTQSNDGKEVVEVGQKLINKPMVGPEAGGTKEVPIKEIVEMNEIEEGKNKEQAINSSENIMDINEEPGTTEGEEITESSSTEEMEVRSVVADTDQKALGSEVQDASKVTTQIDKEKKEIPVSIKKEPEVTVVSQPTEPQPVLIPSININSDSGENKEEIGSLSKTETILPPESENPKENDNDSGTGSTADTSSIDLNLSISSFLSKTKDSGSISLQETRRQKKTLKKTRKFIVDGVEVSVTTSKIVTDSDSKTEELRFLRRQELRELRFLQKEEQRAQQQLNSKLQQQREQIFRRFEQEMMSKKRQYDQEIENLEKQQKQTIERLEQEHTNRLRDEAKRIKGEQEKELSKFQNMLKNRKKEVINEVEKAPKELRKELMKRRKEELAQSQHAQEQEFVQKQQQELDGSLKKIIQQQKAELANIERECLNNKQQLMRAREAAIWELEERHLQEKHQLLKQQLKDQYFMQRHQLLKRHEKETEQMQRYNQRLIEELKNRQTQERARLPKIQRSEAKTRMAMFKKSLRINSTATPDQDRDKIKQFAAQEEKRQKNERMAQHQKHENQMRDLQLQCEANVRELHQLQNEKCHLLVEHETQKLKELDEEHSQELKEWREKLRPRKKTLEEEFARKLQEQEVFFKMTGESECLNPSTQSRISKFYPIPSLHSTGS
The next assay has as its target BTK (Homo sapiens (Human), UniProt Q06187). The assay can be described thus: BTK inhibitory activity. The assay is classed as biochemical.

“And” between values parts separate entries of the source, which are not always exact repeats. Identical values can stand only once. Like-named read-outs stand apart in the source and are kept apart here.

Chain of kinases in BCWM.1 cells (Homo sapiens, UniProt Q13557) (Q13557 2-499 limits assumed): as the sequence (Q13557 2-499 limits assumed) above
Chain of NDR1 (Q15208 whole entry): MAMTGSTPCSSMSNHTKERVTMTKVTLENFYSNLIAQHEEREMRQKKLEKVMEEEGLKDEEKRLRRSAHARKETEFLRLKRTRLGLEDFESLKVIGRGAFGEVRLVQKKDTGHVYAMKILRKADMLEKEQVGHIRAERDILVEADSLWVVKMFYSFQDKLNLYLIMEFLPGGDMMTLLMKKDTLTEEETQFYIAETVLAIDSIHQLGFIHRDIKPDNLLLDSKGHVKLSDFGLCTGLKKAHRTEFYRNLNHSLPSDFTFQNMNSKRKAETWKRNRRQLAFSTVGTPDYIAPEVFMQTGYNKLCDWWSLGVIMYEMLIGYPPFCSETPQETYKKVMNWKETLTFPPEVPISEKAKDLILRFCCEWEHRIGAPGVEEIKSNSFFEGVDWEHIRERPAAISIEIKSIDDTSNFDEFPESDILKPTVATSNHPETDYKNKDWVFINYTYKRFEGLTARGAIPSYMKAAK
Chain of kinases in BCWM.1 cells (Homo sapiens, UniProt P07948) (P07948 2-512 limits assumed): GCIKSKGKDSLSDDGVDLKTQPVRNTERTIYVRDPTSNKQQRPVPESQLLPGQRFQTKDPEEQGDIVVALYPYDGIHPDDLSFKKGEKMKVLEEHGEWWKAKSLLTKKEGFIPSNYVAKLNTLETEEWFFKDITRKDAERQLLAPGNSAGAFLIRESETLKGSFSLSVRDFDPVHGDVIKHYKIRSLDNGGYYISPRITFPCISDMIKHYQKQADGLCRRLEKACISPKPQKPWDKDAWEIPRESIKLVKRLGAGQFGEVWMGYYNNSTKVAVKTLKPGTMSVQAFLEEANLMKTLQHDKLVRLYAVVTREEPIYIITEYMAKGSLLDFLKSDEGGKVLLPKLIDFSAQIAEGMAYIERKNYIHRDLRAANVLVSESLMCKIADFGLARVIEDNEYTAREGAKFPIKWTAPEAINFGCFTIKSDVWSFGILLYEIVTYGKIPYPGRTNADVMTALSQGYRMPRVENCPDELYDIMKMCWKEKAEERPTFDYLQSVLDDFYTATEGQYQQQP
Chain of p38a (Q16539 whole entry): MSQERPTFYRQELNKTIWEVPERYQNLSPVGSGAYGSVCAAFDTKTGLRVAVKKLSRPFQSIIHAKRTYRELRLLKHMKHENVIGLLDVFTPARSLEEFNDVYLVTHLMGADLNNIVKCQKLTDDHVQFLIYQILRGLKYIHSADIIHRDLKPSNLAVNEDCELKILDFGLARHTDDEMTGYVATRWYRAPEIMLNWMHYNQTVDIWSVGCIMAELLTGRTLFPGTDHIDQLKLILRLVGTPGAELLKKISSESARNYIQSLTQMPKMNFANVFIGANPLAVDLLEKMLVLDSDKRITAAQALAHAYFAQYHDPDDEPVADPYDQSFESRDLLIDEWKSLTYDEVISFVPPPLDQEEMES

Consider `C=CC(=O)N1CCC(CNc2nccc(Nc3ncc(C(=O)Nc4c(C)cccc4C)s3)n2)C1` (racemic) [Example I-8], for which the “% change of MS signal compared to control sample” value (“% change of MS signal” below) on NDR1 is −0.8% and 2.2%.

`C=CC(=O)N1CC[C@H](Nc2nc(CN3CCOCC3)cc(Nc3ncc(C(=O)Nc4c(C)cccc4C)s3)n2)C1` [Example I-2]: the “percent of control binding remaining (lower = stronger binding)” value on broad panel of kinases [1] is 91%; on broad panel of kinases [2], 91%; at broad panel of kinases [3] it was 100%; on broad panel of kinases [4], 96%; on broad panel of kinases [5], 100%; on broad panel of kinases [7], 100%. Besides, the “percent of control binding remaining (lower = stronger binding)” value is 98% at broad panel of kinases [8], 48% at broad panel of kinases [9] and 0% on broad panel of kinases [10]. The “% change compared to control” value on broad panel of kinases [6] is given as 100%.

On to `C=CC(=O)N1CC[C@H](Nc2nccc(Nc3ncc(C(=O)Nc4c(C)cccc4C)s3)n2)C1` [Example I-3], for which the “percent of control binding remaining (lower = stronger binding)” value on broad panel of kinases [1] stood at 84%; on broad panel of kinases [2], 92%; on broad panel of kinases [3], 89%; at broad panel of kinases [4], 58%; at broad panel of kinases [5], 100%; on broad panel of kinases [7], 100%. In addition, the “percent of control binding remaining (lower = stronger binding)” value on broad panel of kinases [8] stood at 81%; at broad panel of kinases [9], 42%; at broad panel of kinases [10], 0.75%. For the same compound, the “% change compared to control” value at broad panel of kinases [6] was found to be 100%.

Consider `C=CC(=O)N1CC[C@@H](Nc2nccc(Nc3ncc(C(=O)Nc4c(C)cccc4C)s3)n2)C1` [Example I-4], for which the “% change of MS signal” value on DNAPK is −80.8%; on IKKb, 3.1% and 4.4%; at CDK7, 21.6% and 16.8%; at JAK3 domain2, −30.8%.

Consider `C=CC(=O)N1CCCCC(Nc2nccc(Nc3ncc(C(=O)Nc4c(C)cccc4C)s3)n2)C1` (centres unmarked) [Example I-7], for which the “% change of MS signal” value on p38a was 69.8% and 51.2%; in the assay on MAP2K1, MAP2K2, 7.4%.

For `CCC(=O)N1CC[C@H](Nc2nccc(Nc3ncc(C(=O)Nc4c(C)cccc4C)s3)n2)C1` [Example I-9], the “% change of MS signal” value on kinases in BCWM.1 cells [11] was 81.7% and 85.6%; at kinases in BCWM.1 cells [12], 6.5%; on kinases in BCWM.1 cells [13], −8.1% and −8.2%; on kinases in BCWM.1 cells [14] (Lys1), −1.9% and 1.2%; at kinases in BCWM.1 cells [14] (Protein Kinase Domain), 24.5% and 12.4%; at kinases in BCWM.1 cells [15], 11.1% and 9.8%. Moreover, the “% change of MS signal” value on kinases in BCWM.1 cells [16] was −7%; at kinases in BCWM.1 cells [17], 7% and −1.8%; at kinases in BCWM.1 cells [18] it was −13.2%; on kinases in BCWM.1 cells [19], −18.3% and −12.9%; on kinases in BCWM.1 cells [20], 85.2% and 94%; at kinases in BCWM.1 cells [21], −1.1% and 7.7%. Further, the “% change of MS signal” value is −11.2% and −7.4% on kinases in BCWM.1 cells [22]; 0.4% and −1.4% at kinases in BCWM.1 cells [23]; −12.3% and −5.1% at kinases in BCWM.1 cells [24].

For `C=CC(=O)N1CCC(Cn2ccc(Nc3ncc(C(=O)Nc4c(C)cccc4Cl)s3)n2)C1` (centres unmarked) [II-1], the “% change of MS signal” value on SLK was 0.0% and −3.6%. The compound also gave a half-inhibitory concentration (IC50) against BTK of 1.1 nM.
